Laboratory results from patent publication US10770169B2, “Method of providing a treatment to a subject based on a dynamic pathway map” (THE REGENTS OF THE UNIVERSITY OF CALIFORNIA, priority 2010, dated 2020).

System: panel of 55 breast cancer cell lines
Experiment: Cell growth inhibition assay (Cell Titer Glo, 72 h, 9 doses; GI50, TGI, LC50)
Assay type: cell-based, human
Settings: value is the negative log10 of mol/L
[1] = AU565 cell line, censored GI50 values
[2] = BT474 cell line, censored GI50 values
[3] = BT483 cell line, censored GI50 values
[4] = CAMA1 cell line, censored GI50 values
[5] = HCC38 cell line, censored GI50 values
[6] = HCC70 cell line, censored GI50 values
[7] = HCC1143 cell line, censored GI50 values
[8] = HCC1187 cell line, censored GI50 values
[9] = HCC1395 cell line, censored GI50 values
[10] = HCC1419 cell line, censored GI50 values
[11] = HCC1428 cell line, censored GI50 values
[12] = HCC1500 cell line, censored GI50 values
[13] = HCC1806 cell line, censored GI50 values
[14] = HCC1937 cell line, censored GI50 values
[15] = HCC1954 cell line, censored GI50 values
[16] = HCC2185 cell line, censored GI50 values
[17] = HCC3153 cell line, censored GI50 values
[18] = MCF7 cell line, censored GI50 values
[19] = MDAMB134VI cell line, censored GI50 values
[20] = MDAMB157 cell line, censored GI50 values
[21] = MDAMB175VII cell line, censored GI50 values
[22] = MDAMB231 cell line, censored GI50 values
[23] = MDAMB361 cell line, censored GI50 values
[24] = MDAMB415 cell line, censored GI50 values
[25] = MDAMB436 cell line, censored GI50 values
[26] = MDAMB453 cell line, censored GI50 values
[27] = MDAMB468 cell line, censored GI50 values
[28] = SKBR3 cell line, censored GI50 values
[29] = SUM149PT cell line, censored GI50 values
[30] = SUM159PT cell line, censored GI50 values
[31] = SUM185PE cell line, censored GI50 values
[32] = SUM1315MO2 cell line, censored GI50 values

C[C@@H](Oc1cc(-n2cnc3ccc(CN4CCN(C)CC4)cc32)sc1C(N)=O)c1ccccc1C(F)(F)F [GSK461364A] gave a GI50 (600MPE cell line, censored GI50 values) of 5.16, a GI50 [1] of 8.35 and a GI50 [2] of 5.07. For the same molecule, the GI50 [3] was 5.35, the GI50 [4] was 5.17 and the GI50 [5] was 7.42. It also gave a GI50 [6] of 7.01, a GI50 [7] of 7.13 and a GI50 [8] of 7.48. The GI50 [9] was 8.31, the GI50 [10] was 5.12 and the GI50 [11] was 5.26. It also gave a GI50 [12] of 7.89, a GI50 [13] of 7.95 and a GI50 [14] of 7.51. For the same molecule, the GI50 [15] was 8.16, the GI50 [16] was 8.26 and the GI50 [17] was 7.50. It also gave a GI50 [18] of 7.82, a GI50 [19] of 7.83 and a GI50 [20] of 8.98. The GI50 [21] was 5.21, the GI50 [22] was 7.68 and the GI50 [23] was 8.72. It also gave a GI50 [24] of 7.08, a GI50 [25] of 7.90 and a GI50 [26] of 7.97. For the same molecule, the GI50 [27] was 8.41, the GI50 [28] was 7.78 and the GI50 [29] was 7.72. For the same molecule, the GI50 [30] was 7.49, the GI50 [31] was 5.66 and the GI50 [32] was 7.51. It also gave a GI50 (cell line 600MPE) of 5.16 and a GI50 (cell line AU565) of 8.35.
With CC(C)Oc1ccc(C(=O)N[C@H](CNC(=O)CN(C)C)Cc2ccc(-c3cn4cccc([C@H](C)O)c4n3)cc2)cc1Cl [GSK923295] the GI50 [1] was 7.62, the GI50 [2] was 5.42 and the GI50 [3] was 6.44. It also gave a GI50 [4] of 7.33, a GI50 [5] of 7.32 and a GI50 [6] of 7.68. The GI50 (HCC202 cell line, censored GI50 values) was 7.77, the GI50 [7] was 6.77 and the GI50 [8] was 7.52. It also gave a GI50 [9] of 7.33, a GI50 [10] of 5.72 and a GI50 [11] of 5.21. For the same molecule, the GI50 [12] was 7.28, the GI50 [13] was 7.34 and the GI50 [14] was 7.20. It also gave a GI50 [15] of 7.62, a GI50 [16] of 7.43 and a GI50 [17] of 7.22. For the same molecule, the GI50 [18] was 5.90, the GI50 [19] was 5.50 and the GI50 [20] was 7.50. For the same molecule, the GI50 [21] was 6.76, the GI50 [22] was 7.34 and the GI50 [23] was 7.42. It also gave a GI50 [24] of 7.28, a GI50 [25] of 7.59 and a GI50 [26] of 6.96. The GI50 [27] was 7.61, the GI50 [28] was 7.34 and the GI50 [29] was 7.17. It also gave a GI50 [30] of 7.43, a GI50 [31] of 5.42 and a GI50 [32] of 7.44. It also gave a GI50 (cell line 600MPE) of 4.48, a GI50 (cell line AU565) of 7.62 and a GI50 (cell line BT474) of 5.42. It also gave a GI50 (cell line BT483) of 6.44, a GI50 (cell line CAMA1) of 7.33 and a GI50 (cell line HCC38) of 7.32. It also gave a GI50 (cell line HCC70) of 7.68, a GI50 (cell line HCC202) of 7.77 and a GI50 (cell line HCC1143) of 6.77. The GI50 (cell line HCC1187) was 7.52, the GI50 (cell line HCC1395) was 7.33 and the GI50 (cell line HCC1419) was 5.72. The GI50 (cell line HCC1428) was 5.21, the GI50 (cell line HCC1500) was 7.28 and the GI50 (cell line HCC1806) was 7.34. For the same molecule, the GI50 (cell line HCC1937) was 7.20, the GI50 (cell line HCC1954) was 7.62 and the GI50 (cell line HCC2185) was 7.43. The GI50 (cell line HCC3153) was 7.22, the GI50 (cell line MCF7) was 5.90 and the GI50 (cell line MDAMB134V) was 5.50. It also gave a GI50 (cell line MDAMB157) of 7.50, a GI50 (cell line MDAMB175V) of 6.76 and a GI50 (cell line MDAMB231) of 7.34. For the same molecule, the GI50 (cell line MDAMB361) was 7.42, the GI50 (cell line MDAMB415) was 7.28 and the GI50 (cell line MDAMB436) was 7.59. For the same molecule, the GI50 (cell line MDAMB453) was 6.96, the GI50 (cell line MDAMB468) was 7.61 and the GI50 (cell line SKBR3) was 7.34. For the same molecule, the GI50 (cell line SUM52PE) was 7.64, the GI50 (cell line SUM149PT) was 7.17 and the GI50 (cell line SUM159PT) was 7.43. The GI50 (cell line SUM185PE) was 5.42, the GI50 (cell line SUM1315MO) was 7.44 and the GI50 (cell line UACC812) was 7.92. For the same molecule, the GI50 (cell line UACC893) was 7.91, the GI50 (cell line ZR75B) was 7.15 and the GI50 (cell line ZR751) was 6.92. For the same molecule, the GI50 (cell line ZR7530) was 7.68.
